Experimental data published in patent US20230002446A1, “ANTI-INFLAMMATORY AGENTS” (The University of Sydney, priority 2019, published 2023).
Where a SMILES comes first, the peptide text is derived from it. [ ]: non-standard residue; d: D form. AEEA = NCCOCCOCC(=O)O

Legend:
[1] = tested on: primary human blood derived macrophages; assay: LPS- or imiquimod-stimulated human blood derived macrophages, cytokine ELISA; format: cell-based; details: after stimulation with either LPS or imiquimod
Procedure: (§1) FIG. 5—Peptide administration reduces the activation of pro-inflammatory DCs and macrophages. (A) C57BL/6 murine splenocytes were stimulated with LPS±peptide RP23 (SEQ ID NO:12) and expression of activation markers on DCs was assessed by flow cytometry. (B) Bone marrow derived murine macrophages were incubated with peptide RP23 (30 mins) and stimulated with LPS (overnight). Positive controls were stimulated with LPS only. Negative controls were unstimulated. Inflammatory cytokine production was assessed by ELISA. (C) CD14+ cells were isolated from human blood and differentiated into macrophages by culturing with human serum. Cells were incubated with peptide RP23 (30 mins), then stimulated overnight with LPS (left panel) or imiquimod (right panel). Inflammatory cytokine (IL-6 or IL-12/23) production was assessed by ELISA. Representative of 6 donors. Data are presented as mean±S.E.M. Statistical significance was determined by ANOVA with Dunnett's multiple comparison test, *p<0.05, **p<0.01, ***p<0.001.
(§2) Using an in vitro culture system, it was determined whether RP23 could suppress the activity of specific pro-inflammatory immune cells. […] The culture of murine bone marrow derived macrophages with RP23 led to reduced IL-6, MCP-1 and TNF release after LPS-stimulation (FIG. 5b). […]

[2] = tested on: C57BL/6 mice; assay: imiquimod-induced psoriasis model; format: in vivo
Procedure: FIG. 4—Peptide administration reduces local disease severity in a mouse model of psoriasis. (A) Experimental outline (B) Clinical scores of mice receiving PBS or peptide RP23 (SEQ ID NO:12) injection, compared to daily (0-4 days) topical application of glucocorticoid on the back and ear. (C) Measures of disease local to the peptide RP23 injection site. Redness was measured using an unbiased erythema meter and skin thickness by manual callipers. (D) Spleen weight at day 5 as a measure of systemic immune suppression. […] Data are presented as mean±S.E.M. Statistical significance was determined by ANOVA with Dunnett's multiple comparison test, *p<0.05, **p<0.01, ***p<0.001, ****p<0.0001.
FIG. 10. Therapeutic synergy of RP23 and topical steroid in the murine imiquimod-induced psoriasis model. Aldara cream (5% imiquimod, 57.5 mgs) was applied daily (days 0-4) to the backs of C57BL/6 female mice to induce psoriasis. Clinical scores (PASI), modified psoriasis area and severity index) of mice receiving (A) PBS or RP23 injection at day −1, with or without topical application of glucocorticoid (0.05% betamethasone dipropionate, “BD” 30 mgs) on the back at day 0 (B) PBS or RP23 injection at day 1 and topical application of glucocorticoid at day 1, in comparison to PBS injection only at day −1. Data are the means+/−SEM (n=5). Statistical significance was determined by ANOVA with Dunnett's multiple comparison test to PBS only control, *p<0.05, **p<0.01, ***p<0.001, ****p<0.0001.
The backs of 8-week old female C57BL/6 mice (Australian BioResources) were coarse shaved. A minimum of 24 hours later, 10 nmol RP23 was delivered via sub-cutaneous injection at the lower back in 200 μl phosphate buffered saline (PBS). Groups of mice acting as positive controls for disease development received injection of PBS only. One or seven days later, psoriasis-like inflammation was induced via topical application of 5% imiquimod cream (Aldara, Inova Pharmaceuticals) to the shaved back (57.5 mgs) and one ear (5 mg, divided between dorsal and ventral sides). The contralateral ear served as a negative control for imiquimod-induced inflammation. Imiquimod application was repeated daily for four consecutive days. C57BL/6 mice experience rapid weight loss (up to 20%) upon application of imiquimod cream. Supportive care was provided in the form of dietary supplementation commenced 2 days prior to imiquimod application, and intra-peritoneal injection of 300 μl sterile PBS on days two and three of imiquimod application. Disease progression was monitored for five days, by recording weight loss and grading disease of the back skin using a modified Psoriasis Area and Severity Index (PASI) clinical scoring system, that assessed only disease severity. Additionally, erythema meter (DSM II ColorMeter, Cortex Technology, Denmark) readings were taken at four quadrants on the back skin and skin backfold thickness measurements were recorded using manual callipers. Disease progression of the ear skin was determined by recording ear thickness, measured by manual callipers. As a positive control for immune suppressive therapy, groups of mice received daily topical application of betamethasone dipropionate 0.05% (MSD) cream (30 mgs on the back, 10 mgs on the ear).
Aldara cream (5% imiquimod, 57.5 mgs) was applied daily (days 0-4) to the backs of C57BL/6 female mice to induce psoriasis. Clinical scores (PASI, modified psoriasis area and severity index) of mice receiving prophylactic PBS or RP23 (at day −1), with or without topical application of glucocorticoid (0.05% betamethasone dipropionate, 30 mgs) to the back at day 0, were determined (FIG. 10A).
RP23 and BD therapy were also tested when given synergistically at a therapeutic timepoint (at day 1). Psoriasis was induced as above, but clinical scores were determined daily for 10 days after ceasing imiquimod application at day 5, to record the rate and degree of psoriasis disease resolution (FIG. 10B).

[3] = tested on: primary murine splenic dendritic cells; assay: LPS-stimulated murine splenocytes, DC activation (flow cytometry); format: cell-based
Procedure: as §1, §2

[4] = tested on: C57BL/6 mice; assay: oxazolone murine model of atopic dermatitis; format: in vivo; details: injection at day -1, or both day -7 and day -1; compared to PBS
From the text: (§3) FIG. 13. RP23 treatment reduces inflammation in a murine model of atopic dermatitis. Ears and shaved backs of C57BL/6 female mice were sensitised (day 0) and challenged (day 7, 10, 14, 17, 19, 21, 23, 25 and 27) with topical application of the irritant oxazolone or vehicle only. Injection of mice with RP23 at day −1, or both day −7 and day −1, is compared to injection with PBS only (day −7 and day −1) or topical application of steroid (0.01% betamethasone dipropionate, 30 mgs) applied on the back at the time of every oxazolone application. Ear thickness was measured with manual callipers. Data are the means+/−SEM (n=5).
as §3, with “Ears” for “FIG. 13. RP23 treatment reduces inflammation in a murine model of atopic dermatitis. Ears”, “−1, was” for “−1, is”, “callipers.” for “callipers. Data are the means+/−SEM (n=5).”

CSCC[C@H](NC(=O)COCCOCCNC(=O)[C@H](CCCCN)NC(=O)[C@H](CCCCN)NC(=O)[C@H](CCCCN)NC(=O)[C@@H](N)CCCCN)C(=O)N[C@H](C(=O)N1CCC[C@H]1C(=O)NCC(=O)N[C@H](C(=O)N[C@@H](CCC(N)=O)C(=O)N[C@@H](CO)C(=O)N1CCC[C@H]1C(=O)N[C@@H](Cc1ccccc1)C(=O)N[C@@H](Cc1ccccc1)C(=O)N[C@@H](CC(C)C)C(=O)N[C@@H](CC(C)C)C(=O)N[C@@H](CC(C)C)C(=O)N[C@@H](CC(C)C)C(=O)N[C@@H](CC(C)C)C(=O)N[C@H](C(=O)N[C@H](C(=O)N[C@@H](CC(C)C)C(=O)N[C@H](C(=O)N[C@H](C(=O)N[C@H](C(=O)O)C(C)C)C(C)C)[C@@H](C)O)C(C)C)[C@@H](C)O)[C@@H](C)O)[C@@H](C)O [RP23] (H-KKKK[AEEA]MTPGTQSPFFLLLLLTVLTVV-OH) was tested, and the IL-6 release [1] was “reduced”, the IL-12/23 release [1] was “reduced” and the “disease at a distal site (ear thickness)” value ([2]; injection at lower back, ear measured) was “did not suppress disease at a distal site”. The local erythema ([2]; single injection) was “reduced”, the scaling ([2]; single injection) was “reduced” and the skin thickness ([2]; single injection) was “reduced”. For the same compound, the “systemic immune suppression / locality of effect” value ([2]; spleen weight at day 5, distal ear thickness (FIG. 4d)) was “isolated to the area in which RP23 was delivered”, the “expression of surface activation markers” value ([3]; LPS stimulation) was “reduced” and the “secretion of inflammatory chemokines” value ([3]; data not shown) was “reduced the secretion of inflammatory chemokines”. The “inflammation in the ears (ear thickness)” value [4] was “reduced inflammation in the ears”.
